The values that follow come from PMC6235670, “An mTOR Signaling Modulator Suppressed Heterotopic Ossification of Fibrodysplasia Ossificans Progressiva” (Stem Cell Reports, 2018).

Molecules are shown by their SMILES.

A short description of data set [1]: AlamarBlue viability assay in ATDC5/FOP-ACVR1. As to conditions: mouse. As to the method:
Generation of ATDC5 stably expressing ACVR1. WT - or FOP-ACVR1 was inserted into doxycycline (Dox)- […]
(KW111/WT-ACVR1 or KW111/FOP-ACVR1). KW111/WT-ACVR1 or KW111/FOP-ACVR1 and PBaseII […]
FuGeneHD® (Promega) according to the manufacturer’s protocol, and the neomycin- resistant population (500 µg/mL) was selected. Further selection was performed by selecting a mCherry high positive population (< 5%) after six hours of Dox treatment, sorting it with fluorescent-activated cell sorting (FACS) using AriaII (BD) according to the manufacturer’s protocol, and designating it as ATDC5/WT-ACVR1 or ATDC5/FOP-ACVR1.
KW111 included PB, active transposable PB elements; TRE-mCMVP, Tetracycline Response Element and a minimal CMV promoter; rtTA, reverse tetracycline-controlled transactivator. PBaseII was an expression plasmid vector containing the PB transposase cDNA with optimized codon usage to human under the control […]
HTS campaign and follow-up screens. ATDC5/FOP-ACVR1 cells were plated in 96-well white plates (2,000 cells/well/40 µ L, Corning) in DMEM/F-12 supplemented with 5% (v/v) FBS. […]
37 °C under 5% CO2. After 3 days incubation, Alkaline Phosphatase activity (ALP) or AlamarBlue activity was measured using Amplite™ Colorimetric Alkaline Phosphatase Assay Kit (AAT Bioquest) or alamarBlue® Cell Viability Reagent (Thermo Fisher Scientific) according to the manufacturer’s protocol, respectively. T h e […]
was measured on POWERSCAN4 (DS Pharma Biomedical) or EnVision® Multilabel Reader (PerkinElmer).
Inhibitory effects of the screened compounds are given as percent inhibition, which was calculated using the following equation: (1-([Abs of compound] - [Abs of Min])/([Abs of Max] - [Abs of Min]))× 100, where [Abs of Max] and [Abs of Min] are the mean Abs of DMSO control and 1 µM DMH-1, respectively. The Z’ factor, which is widely used as a measure of the assay quality of each plate, was calculated using the following equation: Z’ factor = 1 - 3 × ([SD of Max] + [SD of Min])/([Abs of Max] - [Abs of Min]) (SI Appendix, Fig.
The S/B (signal-to-background) ratio was calculated using the following equation: ([Abs of Max]/[Abs of Min]) (SI Appendix, Fig. S3B).
Using ATDC5/FOP-ACVR1 cells, we performed a first screening (n=2; test compounds = 1 µM, Fig. […]

The subject of data set [2] is FOP-ACVR1 (R206H) conditional transgenic mice. As for the experimental part: MTOR s604 […]tt […]at […]
Cardiotoxin-induced HO model in human FOP-ACVR1 conditional transgenic mice. Female hFOP-ACVR1 conditional transgenic mice (Beard et al., 2006; Hino et al., 2017; Ohnishi et al., 2014; Yamada et al., 2013) (f5-6 offspring of chimeric mice, age- and body weight- matched between groups) were used between 16 and 20 weeks of age. Mice were administered 2 mg/mL Dox in their drinking water supplemented with 10 mg / mL sucrose to induce FOP-ACVR1. Cardiotoxin (9.1 µg/mouse, Latoxan) was injected into the right gastrocnemius muscle to initiate skeletal muscle injury and subsequent heterotopic bone formation (Chakkalakal et al., 2012). Test compounds (16% DMSO in 0.5 w/v% Methyl Cellulose 400) were intraperitoneally administered once a day, five times a week. Mice were analyzed three weeks after injection.
For X- ray images, mice were anesthetized with isoflurane (5% for induction, 2-3% for maintenance, Abbvie), immobilized and X-rayed using µFX-1000 (Fujifilm) or DX-50 (Faxitron Bioptics). µCT images were scanned using X-ray CT systems (inspeXio SMX-100CT, Shimadzu) and analyzed with TRI/3D-BON software (Ratoc System Engineering) according to the manufacturer's instructions. Four weeks after injection, the injected sites were harvested, fixed with 4% paraformaldehyde for 24 h, embedded in paraffin, and sectioned and stained with HE, von Kossa, Safranin O and anti-Collagen I antibody as previously described ( Hino et al., 2015; U med a […]
BMP-7-induced HO model mice. […] Mice were analyzed 2 weeks after injection. […]
Histological analysis of growth plates chondrocytes. Knee joints were obtained from BMP-7-injected and test compounds-administrated C57BL/6NJcl mice after 2 weeks treatment and fixed, paraffin-embedded, and sectioned and stained with Safranin O. The thickness of the proliferative and hypertrophic zones of the growth plate were measured using ImageJ software on images obtained using a Keyence microscope (Keyence A merica). […]

`FC(F)(F)c1ccc(/C=C/c2nc(COc3ccc(CCCCn4ccnn4)cc3)co2)cc1` [TAK 165, mubritinib]: the viability at 3 days, 10 µM in data set [1] is 117%. In addition, in data set [2] (5 mg/kg i.p.), the “body weight change compared with vehicle” value is recorded as “No apparent differences” and the “von Kossa or COL1 staining of CTX-injected site” value is recorded as “less positive staining”. For the same compound, in data set [2] (5 mg/kg i.p. once daily, five times a week, 3 weeks after CTX), the “heterotopic ossification (heterotopic bone volume)” value was “significantly suppressed”.
